Assay results: patent US12409172B2, “Dosage regimen” (UNION therapeutics A/S, priority 2023, dated 2025)
Read-outs that look alike come from different tables or passages of the source. Marks after values point to notes of the source that are not given here.

Assays:
[1] = Clinical trial LP0058-1442 in healthy volunteers: PK of modified-release tablet vs immediate-release capsule; assay type: in vivo, human; details: for AUC(0-t): human, plasma, oral, read-out: AUClast, NCA GM (CV %)
Procedure: The modified-release formulation was studied in a clinical trial (LP0058-1442) and administered in a total of 36 healthy volunteers: 18 in part 1, 9 in part 2, and 9 in part 3. Twenty-seven (27) healthy volunteers received a single administration of 30 mg orismilast, and 9 subjects received multiple administrations over a period of 17 days with an up-titration up to a maximum of 60 mg BID. Part 1 of this study was to evaluate the key PK parameters of the new modified-release formulation compared to the reference capsule formulation with immediate release. Orismilast was rapidly absorbed from both formulations with median tmax values of 3.00 hours post-dose for the immediate-release capsule and 2.52 hours post-dose for the modified-release tablet. The individual tmax ranges were approximately 1 to 6 hours post-dose for the immediate-release capsule and 1 to 4 hours post-dose for the modified-release tablet. […] It can therefore be reasonably assumed that the safety profile resulting from systemic effects can be extrapolated from studies having investigated the immediate-release formulation and in particular, study LP0058-1072, a Phase 2a study including 36 patients with moderate to severe psoriasis vulgaris.
Following administration of modified release tablet as a single oral dose and after multiple doses up to 60 mg, orismilast reached a Cmax around 3 h under fasting state.

[2] = tested on: cytokines in psoriatic lesional skin; assay: Skin tape strip biomarkers (Olink Target 96 Inflammation panel) in the phase 2b psoriasis study (Example 10); assay type: in vivo, human; details: for log2FCH W16_L - BL_L, CCL3 / log2FCH W16_L - BL_L, CCL4 / log2FCH W16_L - BL_L, CCL20 / log2FCH W16_L - BL_L, CSF1 / log2FCH W16_L - BL_L, CXCL1 / log2FCH W16_L - BL_L, CXCL5 / log2FCH W16_L - BL_L, CXCL6 / log2FCH W16_L - BL_L, CXCL9 / log2FCH W16_L - BL_L, CXCL10 / log2FCH W16_L - BL_L, IFNγ / log2FCH W16_L - BL_L, IL8 / log2FCH W16_L - BL_L, IL12B / log2FCH W16_L - BL_L, IL17A / log2FCH W16_L - BL_L, IL18 / log2FCH W16_L - BL_L, IL18R1 / log2FCH W16_L - BL_L, IL. 17C / log2FCH W16_L - BL_L, MMP1 / log2FCH W16_L - BL_L, TNFRSF9 / log2FCH W16_L - BL_L, TNFSF14 / log2FCH W16_L - BL_L, TNFα / log2FCH W16_L - BL_L, TRAIL: Week 16 lesional vs baseline lesional skin
Source text: Skin tape strip samples were taken from lesional and non-lesional skin at baseline and lesional skin at week 16 of patients participating in the phase 2b, dose-ranging study assessing oral modified release orismilast in adults with moderate-to-severe plaque psoriasis (NCT05190419) described in Example 3. Approximately twenty consecutive stratum corneum samples were collected from the same skin site by tape stripping (D-squames; Monaderm DS100) of both lesional and non-lesional skin at baseline and lesional skin at week 16. To extract the proteins from the tapes the first ten tapes were pooled together and used for subsequent protein extraction by incubation in 800 μL of PBS containing 0.2% Triton X-100 together with a mixture of protease inhibitors and incubated overnight at 4° C. under stirring at 1400 rpm in a thermo mixer (Eppendorf). The insoluble material was removed by filtration on 0.22 μm filters by centrifugation. The protein extracts were analyzed using the Olink® technology (Target 96 Inflammation panel). Protein extracts from patients treated with placebo, 20 mg orismilast BID, and 30 mg orismilast BID as described in Example 3 were analyzed.
OLINK data was analyzed in R 2023.09.0+463 using a linear mixed effect model (OlinkAnalyse and Ime4) to estimate log 2 fold changes between Week 16 lesional skin versus baseline lesional skin and baseline lesional versus baseline non-lesional skin levels. P-values were corrected for multiple testing using the Benjamini-Hochberg method. The data was further modeled according to a weight-based dosing regimen in which data of the 20 mg Orismilast BID arm was used for patients with a bodyweight at baseline of <100 kg and combined with using data of the 30 mg Orismilast BID arm for patients ≥100 kg, respectively (named “P3DR”).

[3] = P3DR (20 mg <100 kg and 30 mg >=100 kg combined)

With O=C(Cc1c(Cl)c[n+]([O-])cc1Cl)c1ccc(OC(F)F)c2c1OC1(CCS(=O)(=O)CC1)O2 [orismilast, 2-(3,5-dichloro-1-oxidopyridin-1-ium-4-yl)-1-[7-(difluoromethoxy)-1′,1′-dioxospiro[1,3-benzodioxole-2,4′-thiane]-4-yl]ethanone] the AUC(0-t) ([1]; 10 mg, 1442 - Part 3 (D1 = 10 mg), N 9) was 112 ng·h/mL, the AUC(0-t) ([1]; 30 mg, 1442 - Part 1 (MR, 30 mg), N 18) was 482 ng·h/mL and the AUC(0-t) ([1]; 30 mg, 1442 - Part 2 (Fast, 30 mg), N 9) was 480 ng·h/mL. For the same compound, the AUC(0-t) ([1]; 60 mg, 1442 - Part 3 (D17 = 60 mg), N 9) was 763 ng·h/mL, the “systemic exposure with high-fat meals” value ([1]; modified release tablet) was “significant increase” and the “log2FCH W16_L - BL_L, CCL3” value ([2]; 20 mg BID) was −2.68 ***. For the same compound, the “log2FCH W16_L - BL_L, CCL4” value ([2]; 20 mg BID) was −2.46 ***, the “log2FCH W16_L - BL_L, CCL20” value ([2]; 20 mg BID) was −2.53 *** and the “log2FCH W16_L - BL_L, CSF1” value ([2]; 20 mg BID) was −1.35 **. For the same compound, the “log2FCH W16_L - BL_L, CXCL1” value ([2]; 20 mg BID) was −1.83 *, the “log2FCH W16_L - BL_L, CXCL5” value ([2]; 20 mg BID) was −1.67 ** and the “log2FCH W16_L - BL_L, CXCL6” value ([2]; 20 mg BID) was −2.34 ***. For the same compound, the “log2FCH W16_L - BL_L, CXCL9” value ([2]; 20 mg BID) was −2.40 ***, the “log2FCH W16_L - BL_L, CXCL10” value ([2]; 20 mg BID) was −2.20 *** and the “log2FCH W16_L - BL_L, IFNγ” value ([2]; 20 mg BID) was −1.21 *. For the same compound, the “log2FCH W16_L - BL_L, IL8” value ([2]; 20 mg BID) was −1.82 *, the “log2FCH W16_L - BL_L, IL12B” value ([2]; 20 mg BID) was −2.21 ** and the “log2FCH W16_L - BL_L, IL17A” value ([2]; 20 mg BID) was −2.19 ***. For the same compound, the “log2FCH W16_L - BL_L, IL18” value ([2]; 20 mg BID) was −2.10 **, the “log2FCH W16_L - BL_L, IL18R1” value ([2]; 20 mg BID) was −1.25 ** and the “log2FCH W16_L - BL_L, IL. 17C” value ([2]; 20 mg BID) was −2.49 ***. For the same compound, the “log2FCH W16_L - BL_L, MMP1” value ([2]; 20 mg BID) was −2.41 **, the “log2FCH W16_L - BL_L, TNFRSF9” value ([2]; 20 mg BID) was −1.45 *** and the “log2FCH W16_L - BL_L, TNFSF14” value ([2]; 20 mg BID) was −1.38 *. The “log2FCH W16_L - BL_L, TNFα” value ([2]; 20 mg BID) was −1.92 ***, the “log2FCH W16_L - BL_L, TRAIL” value ([2]; 20 mg BID) was −1.40 ** and the “log2FCH W16_L - BL_L, CCL3” value ([2]; 30 mg BID) was −3.42 ***. The “log2FCH W16_L - BL_L, CCL4” value ([2]; 30 mg BID) was −2.83 ***, the “log2FCH W16_L - BL_L, CCL20” value ([2]; 30 mg BID) was −3.36 *** and the “log2FCH W16_L - BL_L, CSF1” value ([2]; 30 mg BID) was −1.97 ***. For the same compound, the “log2FCH W16_L - BL_L, CXCL1” value ([2]; 30 mg BID) was −2.84 ***, the “log2FCH W16_L - BL_L, CXCL5” value ([2]; 30 mg BID) was −2.26 *** and the “log2FCH W16_L - BL_L, CXCL6” value ([2]; 30 mg BID) was −3.15 ***. The “log2FCH W16_L - BL_L, CXCL9” value ([2]; 30 mg BID) was −3.32 ***, the “log2FCH W16_L - BL_L, CXCL10” value ([2]; 30 mg BID) was −2.89 *** and the “log2FCH W16_L - BL_L, IFNγ” value ([2]; 30 mg BID) was −2.02 ***. For the same compound, the “log2FCH W16_L - BL_L, IL8” value ([2]; 30 mg BID) was −2.76 ***, the “log2FCH W16_L - BL_L, IL12B” value ([2]; 30 mg BID) was −3.38 *** and the “log2FCH W16_L - BL_L, IL17A” value ([2]; 30 mg BID) was −2.66 ***. For the same compound, the “log2FCH W16_L - BL_L, IL18” value ([2]; 30 mg BID) was −3.46 ***, the “log2FCH W16_L - BL_L, IL18R1” value ([2]; 30 mg BID) was −1.99 *** and the “log2FCH W16_L - BL_L, IL. 17C” value ([2]; 30 mg BID) was −3.39 ***. For the same compound, the “log2FCH W16_L - BL_L, MMP1” value ([2]; 30 mg BID) was −3.30 ***, the “log2FCH W16_L - BL_L, TNFRSF9” value ([2]; 30 mg BID) was −2.03 *** and the “log2FCH W16_L - BL_L, TNFSF14” value ([2]; 30 mg BID) was −2.23 ***. For the same compound, the “log2FCH W16_L - BL_L, TNFα” value ([2]; 30 mg BID) was −2.48 ***, the “log2FCH W16_L - BL_L, TRAIL” value ([2]; 30 mg BID) was −2.04 *** and the “log2FCH W16_L - BL_L, CCL3” value [2, 3] was −3.60 ***. The “log2FCH W16_L - BL_L, CCL4” value [2, 3] was −3.14 ***, the “log2FCH W16_L - BL_L, CCL20” value [2, 3] was −3.22 *** and the “log2FCH W16_L - BL_L, CSF1” value [2, 3] was −1.86 ***. The “log2FCH W16_L - BL_L, CXCL1” value [2, 3] was −2.34 ***, the “log2FCH W16_L - BL_L, CXCL5” value [2, 3] was −2.25 *** and the “log2FCH W16_L - BL_L, CXCL6” value [2, 3] was −3.02 ***. The “log2FCH W16_L - BL_L, CXCL9” value [2, 3] was −3.24 ***, the “log2FCH W16_L - BL_L, CXCL10” value [2, 3] was −2.94 *** and the “log2FCH W16_L - BL_L, IFNγ” value [2, 3] was −1.91 ***. The “log2FCH W16_L - BL_L, IL8” value [2, 3] was −2.42 ***, the “log2FCH W16_L - BL_L, IL12B” value [2, 3] was −3.09 *** and the “log2FCH W16_L - BL_L, IL17A” value [2, 3] was −2.66 ***. The “log2FCH W16_L - BL_L, IL18” value [2, 3] was −2.96 ***, the “log2FCH W16_L - BL_L, IL18R1” value [2, 3] was −1.83 *** and the “log2FCH W16_L - BL_L, IL. 17C” value [2, 3] was −3.20 ***. The “log2FCH W16_L - BL_L, MMP1” value [2, 3] was −3.31 ***, the “log2FCH W16_L - BL_L, TNFRSF9” value [2, 3] was −1.98 *** and the “log2FCH W16_L - BL_L, TNFSF14” value [2, 3] was −2.08 ***. The “log2FCH W16_L - BL_L, TNFα” value [2, 3] was −2.50 ***, the “log2FCH W16_L - BL_L, TRAIL” value [2, 3] was −1.91 *** and the “expression of key disease driving cytokines in psoriatic lesions” value ([2]; oral orismilast for 16 weeks, 20 mg BID and 30 mg BID) was “significantly reduced”.
